Data from US10030020B2, “Spirocycle compounds and methods of making and using same” (Abide Therapeutics, Inc., priority 2016, dated 2018).

Key:
MAGL [1] = biological target: T1, MAGL (Mus musculus (Mouse), UniProt O35678); test: In vitro competitive activity-based protein profiling (mouse brain membrane fraction or cell lysates), MAGL band; assay type: biochemical; conditions: mouse proteome; for inhibition at 1 µM: read-out: MAGL % Inh 1 μM (mouse); for IC50: competitive ABPP
Description: In Vitro Competitive Activity-Based Protein Profiling.
Proteomes (mouse brain membrane fraction or cell lysates) (50 μL, 1.0 mg/mL total protein concentration) were preincubated with varying concentrations of inhibitors at 37° C. After 30 min, FP—Rh (1.0 μL, 50 μM in DMSO) was added and the mixture was incubated for another 30 min at 37° C. Reactions were quenched with SDS loading buffer (50 μL-4×) and run on SDS-PAGE.

ABHD6 [2] = biological target: T2, ABHD6 (Mus musculus (Mouse), UniProt Q8R2Y0); test: In vitro competitive activity-based protein profiling (mouse brain membrane fraction or cell lysates), ABHD6 band; assay type: biochemical; conditions: mouse proteome; for inhibition at 1 µM: read-out: ABHD6 % Inh 1 μM (mouse); for IC50: competitive ABPP
Procedure, shortened: (§1)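 Residual hydrolase activity was measured as gel band fluorescence after FP-Rh labelling (30 min, 37° C) of proteomes pretreated 30 min at 37° C with inhibitor.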

FAAH [3] = biological target: T3, FAAH (Mus musculus (Mouse), UniProt O08914); test: In vitro competitive activity-based protein profiling (mouse brain membrane fraction or cell lysates), FAAH band; assay type: biochemical; conditions: mouse proteome; for inhibition at 1 µM: read-out: FAAH % Inh 1 μM (mouse); for IC50: competitive ABPP
Procedure, shortened: as §1

MAGL [4] = biological target: MAGL (Homo sapiens (Human), UniProt Q99685); test: In vitro competitive activity-based protein profiling (human prefrontal cortex or cell membrane fractions; hMAGL expressed in HEK293T cells); assay type: biochemical; conditions: human proteome, competitive ABPP
Description: In Vitro Competitive Activity-Based Protein Profiling (Human).
Proteomes (human prefrontal cortex or cell membrane fractions) (50 μL, 1.0-2.0 mg/mL total protein concentration) were preincubated with varying concentrations of inhibitors at 37° C. After 30 min, FP—Rh or JW912 (1.0 μL, 50 μM in DMSO) was added and the mixture was incubated for another 30 min at room temperature. Reactions were quenched with SDS loading buffer (15 μL-4×) and run on SDS-PAGE.
Recombinant Expression of Human MAGL in HEK293T Cells.
Cell lysates were diluted with mock proteomes for use in competitive ABPP experiments.

MAGL [5] = biological target: T1, MAGL; test: Mouse brain proteomes from inhibitor treated mice (oral gavage, sacrificed 4 h after administration, ABPP analysis); assay type: in vivo, mouse (C57Bl/6J); conditions: 5 mg/kg oral gavage
Procedure, shortened: (§2)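 Wild-type C57Bl/6J mice; p.o. gavage, vehicle e.g. PEG400/EtOH/PBS 7/2/1; 5 mg/kg. Brain harvested 4 h post-dose, proteome profiled by ABPP. Read-out: % inhibition.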

FAAH [6] = biological target: T3, FAAH; test: Mouse brain proteomes from inhibitor treated mice (oral gavage, sacrificed 4 h after administration, ABPP analysis), FAAH; assay type: in vivo, mouse (C57Bl/6J); conditions: 5 mg/kg oral gavage
Procedure, shortened: as §2

ABHD6 [7] = biological target: T2, ABHD6; test: Mouse brain proteomes from inhibitor treated mice (oral gavage, sacrificed 4 h after administration, ABPP analysis), ABHD6; assay type: in vivo, mouse (C57Bl/6J); conditions: 5 mg/kg oral gavage
Procedure, shortened: as §2

T2 sequence (Q8R2Y0 whole entry): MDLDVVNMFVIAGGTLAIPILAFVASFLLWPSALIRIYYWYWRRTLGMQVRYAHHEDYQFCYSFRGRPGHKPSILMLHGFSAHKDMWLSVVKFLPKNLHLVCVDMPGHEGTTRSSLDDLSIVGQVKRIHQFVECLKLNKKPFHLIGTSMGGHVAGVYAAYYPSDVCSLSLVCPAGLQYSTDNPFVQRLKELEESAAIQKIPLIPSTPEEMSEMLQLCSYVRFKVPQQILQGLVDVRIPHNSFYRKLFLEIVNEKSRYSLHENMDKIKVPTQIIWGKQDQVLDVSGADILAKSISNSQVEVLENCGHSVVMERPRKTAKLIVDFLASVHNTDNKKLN
T3 sequence (O08914 whole entry): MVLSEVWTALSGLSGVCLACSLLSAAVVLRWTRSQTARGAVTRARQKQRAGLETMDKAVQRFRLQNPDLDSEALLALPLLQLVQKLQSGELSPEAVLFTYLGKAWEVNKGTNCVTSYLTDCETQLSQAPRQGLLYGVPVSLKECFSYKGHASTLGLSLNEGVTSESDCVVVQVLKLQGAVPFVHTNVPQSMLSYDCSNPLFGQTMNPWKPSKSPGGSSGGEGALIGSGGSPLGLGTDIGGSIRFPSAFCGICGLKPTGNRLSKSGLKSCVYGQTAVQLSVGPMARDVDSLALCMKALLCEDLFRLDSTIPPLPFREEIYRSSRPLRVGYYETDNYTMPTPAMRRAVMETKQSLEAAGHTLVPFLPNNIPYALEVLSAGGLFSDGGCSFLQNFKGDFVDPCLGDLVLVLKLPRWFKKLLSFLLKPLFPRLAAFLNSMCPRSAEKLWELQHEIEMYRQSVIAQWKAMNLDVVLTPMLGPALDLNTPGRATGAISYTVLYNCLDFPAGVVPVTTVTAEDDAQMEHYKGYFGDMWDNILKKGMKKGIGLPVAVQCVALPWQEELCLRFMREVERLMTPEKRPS
T1 sequence (O35678 whole entry): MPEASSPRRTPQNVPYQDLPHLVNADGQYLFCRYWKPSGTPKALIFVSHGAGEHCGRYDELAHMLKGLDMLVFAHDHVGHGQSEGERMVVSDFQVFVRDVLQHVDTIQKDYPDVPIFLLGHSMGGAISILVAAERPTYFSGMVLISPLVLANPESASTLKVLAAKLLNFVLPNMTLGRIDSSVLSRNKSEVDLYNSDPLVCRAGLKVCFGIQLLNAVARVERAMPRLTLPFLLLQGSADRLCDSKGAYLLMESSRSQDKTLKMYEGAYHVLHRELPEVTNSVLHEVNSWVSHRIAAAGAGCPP
Chain of MAGL (Homo sapiens (Human), UniProt Q99685) (Q99685 whole entry): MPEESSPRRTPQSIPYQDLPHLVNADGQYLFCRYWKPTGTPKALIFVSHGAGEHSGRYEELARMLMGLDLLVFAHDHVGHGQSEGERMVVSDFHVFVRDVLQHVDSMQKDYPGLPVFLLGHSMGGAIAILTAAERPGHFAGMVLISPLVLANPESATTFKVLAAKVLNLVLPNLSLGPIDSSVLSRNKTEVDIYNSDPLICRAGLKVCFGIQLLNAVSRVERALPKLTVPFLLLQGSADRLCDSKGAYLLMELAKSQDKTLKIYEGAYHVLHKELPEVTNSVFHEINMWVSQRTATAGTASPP

Row | inhibition at 1 µM (MAGL [1]) [%] | IC50 (MAGL [1]) [µM] | inhibition at 1 µM (ABHD6 [2]) [%] | IC50 (ABHD6 [2]) [µM] | inhibition at 1 µM (FAAH [3]) [%] | IC50 (FAAH [3]) [µM] | IC50 (MAGL [4]) [µM] | MAGL % Inh 5 mg/kg (mouse) (MAGL [5]) | FAAH % Inh 5 mg/kg (mouse) (FAAH [6]) | ABHD6 % Inh 5 mg/kg (mouse) (ABHD6 [7]) | Structure (SMILES)
1 | > 75 | < 0.1 | < 25 | > 1 | < 25 | > 1 | < 0.1 | # (# is <25%) | # (# is <25%) | # (# is <25%) | CN(C)C(=O)C1CCN(c2cc(C(F)(F)F)ccc2CN2CCCC23CCN(C(=O)OC(C(F)(F)F)C(F)(F)F)CC3)CC1 [Example 16, 1,1,1,3,3,3-Hexafluoropropan-2-yl 1-(2-(4-(dimethylcarbamoyl)piperidin-1-yl)-4-(trifluoromethyl)benzyl)-1,8-diazaspiro[4.5]decane-8-carboxylate]
2 | > 75 | < 0.1 | < 25 | > 1 | < 25 | > 1 | < 0.1 | ### (### is ≥75%) | # (# is <25%) | # (# is <25%) | CN1CCCc2ccc(CN3CCCC34CCN(C(=O)OC(C(F)(F)F)C(F)(F)F)CC4)cc21 [Example 68, 1,1,1,3,3,3-Hexafluoropropan-2-yl 1-((1-methyl-1,2,3,4-tetrahydroquinolin-7-yl)methyl)-1,8-diazaspiro[4.5]decane-8-carboxylate]
3 | > 75 | < 0.1 | ≥ 75 | 0.1 to 1 | < 25 | > 1 | < 0.1 | ### (### is ≥75%) | # (# is <25%) | ### (### is ≥75%) | O=C(O)C1CCN(c2cc(C(F)(F)F)ccc2CN2CCC3(CCN(C(=O)OC(C(F)(F)F)C(F)(F)F)CC3)C2)CC1 [Example 119, 1-(2-((8-(((1,1,1,3,3,3-Hexafluoropropan-2-yl)oxy)carbonyl)-2,8-diazaspiro[4.5]decan-2-yl)methyl)-5-(trifluoromethyl)phenyl)piperidine-4-carboxylic acid]
4 | > 75 | < 0.1 | < 25 | > 1 | < 25 | > 1 | < 0.1 | ### (### is ≥75%) | # (# is <25%) | # (# is <25%) | O=C(O)C1CCN(c2cc(Cl)ccc2CN2CCCC23CCN(C(=O)OC(C(F)(F)F)C(F)(F)F)CC3)CC1 [Example 120, 1-(5-Chloro-2-((8-(((1,1,1,3,3,3-hexafluoropropan-2-yl)oxy)carbonyl)-1,8-diazaspiro[4.5]decan-1-yl)methyl)phenyl)piperidine-4-carboxylic acid]
5 | > 75 | < 0.1 | < 25 | > 1 | < 25 | > 1 | < 0.1 | ### (### is ≥75%) | # (# is <25%) | # (# is <25%) | O=C(O)C1CCN(c2cc(C(F)(F)F)ccc2CN2CCCC23CCN(C(=O)OC(C(F)(F)F)C(F)(F)F)CC3)CC1 [Example 121, 1-(2-((8-(((1,1,1,3,3,3-Hexafluoropropan-2-yl)oxy)carbonyl)-1,8-diazaspiro[4.5]decan-1-yl)methyl)-5-(trifluoromethyl)phenyl)piperidine-4-carboxylic acid]
6 | > 75 | < 0.1 | < 25 | > 1 | < 25 | > 1 | < 0.1 | ### (### is ≥75%) | # (# is <25%) | # (# is <25%) | O=C(OC(C(F)(F)F)C(F)(F)F)N1CCC2(CCCN2Cc2ccc(C(F)(F)F)c(N3CCOCC3)c2)CC1 [Example 133, 1,1,1,3,3,3-Hexafluoropropan-2-yl 1-(3-morpholino-4-(trifluoromethyl)benzyl)-1,8-diazaspiro[4.5]decane-8-carboxylate]
7 | > 75 | < 0.1 | < 25 | > 1 | < 25 | > 1 | < 0.1 | ### (### is ≥75%) | # (# is <25%) | # (# is <25%) | O=C(OC(C(F)(F)F)C(F)(F)F)N1CCC2(CCCN2Cc2ccc(C(F)(F)F)c(N3CCCC3)c2)CC1 [Example 134, 1,1,1,3,3,3-Hexafluoropropan-2-yl 1-(3-(pyrrolidin-1-yl)-4-(trifluoromethyl)benzyl)-1,8-diazaspiro[4.5]decane-8-carboxylate]

Row | Structure (SMILES) | inhibition at 1 µM (MAGL [1]) [%] | IC50 (MAGL [1]) [µM] | inhibition at 1 µM (ABHD6 [2]) [%] | IC50 (ABHD6 [2]) [µM] | inhibition at 1 µM (FAAH [3]) [%] | IC50 (FAAH [3]) [µM] | IC50 (MAGL [4]) [µM] | MAGL % Inh 5 mg/kg (mouse) (MAGL [5]) | FAAH % Inh 5 mg/kg (mouse) (FAAH [6]) | ABHD6 % Inh 5 mg/kg (mouse) (ABHD6 [7])
8 | O=C(OC(C(F)(F)F)C(F)(F)F)N1CCC2(CCCN2Cc2ccc(C(F)(F)F)cc2N2CCN(CCF)CC2)CC1 [Example 20, 1,1,1,3,3,3-Hexafluoropropan-2-yl 1-(2-(4-(2-fluoroethyl)piperazin-1-yl)-4-(trifluoromethyl)benzyl)-1,8-diazaspiro[4.5]decane-8-carboxylate] |  | < 0.1 |  | > 1 |  | > 1 | < 0.1 | ## (## is equal to or greater than 25% but less than 75%) | # (# is <25%) | # (# is <25%)
9 | O=C(O)C1CCN(c2cc(Cl)cc(CN3CCCC34CCN(C(=O)OC(C(F)(F)F)C(F)(F)F)CC4)c2)CC1 [Example 122, 1-(3-Chloro-5-((8-(((1,1,1,3,3,3-hexafluoropropan-2-yl)oxy)carbonyl)-1,8-diazaspiro[4.5]decan-1-yl)methyl)phenyl)piperidine-4-carboxylic acid] | > 75 | < 0.1 | < 25 | > 1 | < 25 | > 1 | < 0.1 | ### (### is ≥75%) | ## (## is equal to or greater than 25% but less than 75%) | ## (## is equal to or greater than 25% but less than 75%)
10 | O=C(O)C1CCN(c2cc(CN3CCCC34CCN(C(=O)OC(C(F)(F)F)C(F)(F)F)CC4)cc(C(F)(F)F)c2)CC1 [Example 123, 1-(3-((8-(((1,1,1,3,3,3-Hexafluoropropan-2-yl)oxy)carbonyl)-1,8-diazaspiro[4.5]decan-1-yl)methyl)-5-(trifluoromethyl)phenyl)piperidine-4-carboxylic acid] | > 75 | < 0.1 | < 25 | > 1 | < 25 | > 1 | < 0.1 | ### (### is ≥75%) | # (# is <25%) | ## (## is equal to or greater than 25% but less than 75%)
11 | O=C(O)c1cc(CN2CCCC23CCN(C(=O)OC(C(F)(F)F)C(F)(F)F)CC3)ccc1C(F)(F)F [Example 179, 5-((8-((1,1,1,3,3,3-Hexafluoropropan-2-yloxy)carbonyl)-1,8-diazaspiro[4.5]decan-1-yl)methyl)-2-(trifluoromethyl)benzoic acid] | > 75 | 0.1 to 1 | < 25 | > 1 | < 25 | > 1 | < 0.1 | ### (### is ≥75%) | ## (## is equal to or greater than 25% but less than 75%) | # (# is <25%)
